Species: Rattus norvegicus
Assay: Open TG-GATES - Regimen: Daily Repeat
Format: toxicity, organism-based, Sprague-Dawley
Design: regimen Daily Repeat, gender Male, age 6 weeks
Conditions: in vivo, po, route gavage; for APTT / Bas / Eos / Fbg / Hb / Ht / Lym / MCH / MCHC / MCV / Mono / Neu / PT / Plat / RBC / Ret / WBC: tissue Blood; for KIDNEY_L / KIDNEY_R / KIDNEY_TOTAL: tissue Kidney; for LIVER: tissue Liver; for A/G / ALP / ALT / AST / BUN / CRE / Ca / Cl / DBIL / GLC / IP / K / LDH / Na / PL / RALB / TBIL / TC / TG / TP / gamma-GTP: tissue Plasma
[1] = 0 mg/kg, 72 h, dose level Control, time 3 day
[2] = 0 mg/kg, […], dose level Control, time 7 day
[3] = 0 mg/kg, […], dose level Control, time 14 day
[4] = 0 mg/kg, […], dose level Control, time 28 day
[5] = 300 mg/kg, 72 h, dose level Low, time 3 day
[6] = 300 mg/kg, […], dose level Low, time 7 day
[7] = 300 mg/kg, […], dose level Low, time 14 day
[8] = 300 mg/kg, […], dose level Low, time 28 day

## COc1ccc(O)c(C(C)(C)C)c1.COc1ccc(O)cc1C(C)(C)C [BUTYLATED HYDROXYANISOLE]
[1]
  TERMINAL_BW: 225.6 g
  APTT: 15.7 s
  Bas: 0.2%
  Eos: 0.8%
  Fbg: 265.6 mg/dL
  Hb: 12.9 g/dL
  Ht: 38%
  Lym: 71.6%
  MCH: 20.9 pg
  MCHC: 34%
  MCV: 61.5 fL
  Mono: 2.4%
  Neu: 24.3%
  PT: 11.5 s
  Plat: 140.6 x10_4/uL
  RBC: 619 x10_4/ul
  Ret: 6.6%
  WBC: 90.7 x10_2/uL
  KIDNEY_L: 0.9 g
  KIDNEY_R: 0.9 g
  KIDNEY_TOTAL: 1.9 g
  LIVER: 10.1 g
  A/G: 0.8
  ALP: 1690.8 IU/L
  ALT: 37.2 IU/L
  AST: 66.4 IU/L
  BUN: 12.8 mg/dL
  CRE: 0.2 mg/dL
  Ca: 11.2 mg/dL
  Cl: 106 meq/L
  DBIL: 0.02 mg/dL
  GLC: 178.4 mg/dL
  IP: 7.3 mg/dL
  K: 4 meq/L
  LDH: 60.4 IU/L
  Na: 143 meq/L
  PL: 136.2 mg/dL
  RALB: 2.6 g/dL
  TBIL: 0.064 mg/dL
  TC: 76.8 mg/dL
  TG: 69.4 mg/dL
  TP: 5.8 g/dL
  gamma-GTP: 1 IU/L
[2]
  TERMINAL_BW: 252.9 g
  APTT: 19 s
  Bas: 0.3%
  Eos: 0.8%
  Fbg: 288.2 mg/dL
  Hb: 13.5 g/dL
  Ht: 38.9%
  Lym: 76.5%
  MCH: 20.8 pg
  MCHC: 34.7%
  MCV: 60.1 fL
  Mono: 2.5%
  Neu: 19.2%
  PT: 12.2 s
  Plat: 135.8 x10_4/uL
  RBC: 647.4 x10_4/ul
  Ret: 5.1%
  WBC: 94.6 x10_2/uL
  KIDNEY_L: 1 g
  KIDNEY_R: 1 g
  KIDNEY_TOTAL: 2 g
  LIVER: 11.4 g
  A/G: 0.8
  ALP: 1903.8 IU/L
  ALT: 44.4 IU/L
  AST: 67 IU/L
  BUN: 16 mg/dL
  CRE: 0.2 mg/dL
  Ca: 11 mg/dL
  Cl: 104.8 meq/L
  DBIL: 0.02 mg/dL
  GLC: 180.2 mg/dL
  IP: 7 mg/dL
  K: 4.1 meq/L
  LDH: 58.2 IU/L
  Na: 142 meq/L
  PL: 135.4 mg/dL
  RALB: 2.6 g/dL
  TBIL: 0.048 mg/dL
  TC: 70.6 mg/dL
  TG: 95.2 mg/dL
  TP: 5.9 g/dL
  gamma-GTP: 1 IU/L
[3]
  TERMINAL_BW: 320.1 g
  APTT: 16.9 s
  Bas: 0.3%
  Eos: 0.6%
  Fbg: 269.2 mg/dL
  Hb: 13.9 g/dL
  Ht: 40.5%
  Lym: 78.2%
  MCH: 19.9 pg
  MCHC: 34.4%
  MCV: 57.8 fL
  Mono: 1.9%
  Neu: 18.2%
  PT: 12.2 s
  Plat: 143.4 x10_4/uL
  RBC: 700.6 x10_4/ul
  Ret: 3.6%
  WBC: 111.3 x10_2/uL
  KIDNEY_L: 1.2 g
  KIDNEY_R: 1.2 g
  KIDNEY_TOTAL: 2.3 g
  LIVER: 14.3 g
  A/G: 0.8
  ALP: 1384.2 IU/L
  ALT: 32 IU/L
  AST: 57.6 IU/L
  BUN: 14.4 mg/dL
  CRE: 0.2 mg/dL
  Ca: 10.7 mg/dL
  Cl: 105.8 meq/L
  DBIL: 0.018 mg/dL
  GLC: 181.4 mg/dL
  IP: 6.6 mg/dL
  K: 3.7 meq/L
  LDH: 52 IU/L
  Na: 143 meq/L
  PL: 137 mg/dL
  RALB: 2.7 g/dL
  TBIL: 0.048 mg/dL
  TC: 72.8 mg/dL
  TG: 133.8 mg/dL
  TP: 6 g/dL
  gamma-GTP: 1 IU/L
[4]
  TERMINAL_BW: 409.6 g
  APTT: 17.9 s
  Bas: 0.4%
  Eos: 0.9%
  Fbg: 262.8 mg/dL
  Hb: 15 g/dL
  Ht: 41.8%
  Lym: 78.1%
  MCH: 19.5 pg
  MCHC: 35.9%
  MCV: 54.4 fL
  Mono: 1.8%
  Neu: 18.2%
  PT: 12.3 s
  Plat: 121 x10_4/uL
  RBC: 769 x10_4/ul
  Ret: 2.3%
  WBC: 105.1 x10_2/uL
  KIDNEY_L: 1.3 g
  KIDNEY_R: 1.3 g
  KIDNEY_TOTAL: 2.6 g
  LIVER: 16.7 g
  A/G: 0.7
  ALP: 1254.6 IU/L
  ALT: 32.6 IU/L
  AST: 57.6 IU/L
  BUN: 17.8 mg/dL
  CRE: 0.3 mg/dL
  Ca: 10.8 mg/dL
  Cl: 104.8 meq/L
  DBIL: 0.02 mg/dL
  GLC: 191 mg/dL
  IP: 5.4 mg/dL
  K: 4 meq/L
  LDH: 62.2 IU/L
  Na: 143.2 meq/L
  PL: 134.6 mg/dL
  RALB: 2.6 g/dL
  TBIL: 0.054 mg/dL
  TC: 68.6 mg/dL
  TG: 179.6 mg/dL
  TP: 6.2 g/dL
  gamma-GTP: 1 IU/L
[5]
  TERMINAL_BW: 219.2 g
  APTT: 15.4 s
  Bas: 0.3%
  Eos: 1.2%
  Fbg: 275.8 mg/dL
  Hb: 12.7 g/dL
  Ht: 37.2%
  Lym: 78.2%
  MCH: 20.4 pg
  MCHC: 34.2%
  MCV: 59.9 fL
  Mono: 2.2%
  Neu: 17.1%
  PT: 11.5 s
  Plat: 148 x10_4/uL
  RBC: 623.6 x10_4/ul
  Ret: 4.9%
  WBC: 112 x10_2/uL
  KIDNEY_L: 0.9 g
  KIDNEY_R: 0.9 g
  KIDNEY_TOTAL: 1.7 g
  LIVER: 12.2 g
  A/G: 0.8
  ALP: 1525.6 IU/L
  ALT: 36.4 IU/L
  AST: 64.8 IU/L
  BUN: 15.8 mg/dL
  CRE: 0.2 mg/dL
  Ca: 11.2 mg/dL
  Cl: 106.4 meq/L
  DBIL: 0.02 mg/dL
  GLC: 171.4 mg/dL
  IP: 6.3 mg/dL
  K: 4.3 meq/L
  LDH: 60.6 IU/L
  Na: 142.2 meq/L
  PL: 173.4 mg/dL
  RALB: 2.7 g/dL
  TBIL: 0.064 mg/dL
  TC: 95.6 mg/dL
  TG: 89.8 mg/dL
  TP: 6 g/dL
  gamma-GTP: 1.2 IU/L
[6]
  TERMINAL_BW: 261 g
  APTT: 15.7 s
  Bas: 0.2%
  Eos: 0.6%
  Fbg: 300.8 mg/dL
  Hb: 13 g/dL
  Ht: 38.5%
  Lym: 74.3%
  MCH: 20.4 pg
  MCHC: 33.7%
  MCV: 60.4 fL
  Mono: 2.4%
  Neu: 21.7%
  PT: 11.5 s
  Plat: 154.1 x10_4/uL
  RBC: 638 x10_4/ul
  Ret: 6.1%
  WBC: 97.1 x10_2/uL
  KIDNEY_L: 1 g
  KIDNEY_R: 1 g
  KIDNEY_TOTAL: 2.1 g
  LIVER: 13.6 g
  A/G: 0.8
  ALP: 1426 IU/L
  ALT: 33.8 IU/L
  AST: 59.8 IU/L
  BUN: 15.2 mg/dL
  CRE: 0.2 mg/dL
  Ca: 11.3 mg/dL
  Cl: 105 meq/L
  DBIL: 0.018 mg/dL
  GLC: 176 mg/dL
  IP: 7.2 mg/dL
  K: 3.9 meq/L
  LDH: 61.2 IU/L
  Na: 142.8 meq/L
  PL: 163 mg/dL
  RALB: 2.7 g/dL
  TBIL: 0.054 mg/dL
  TC: 91 mg/dL
  TG: 100.2 mg/dL
  TP: 6.1 g/dL
  gamma-GTP: 1 IU/L
[7]
  TERMINAL_BW: 311.5 g
  APTT: 15.2 s
  Bas: 0.2%
  Eos: 0.7%
  Fbg: 319.4 mg/dL
  Hb: 13.7 g/dL
  Ht: 39.7%
  Lym: 77.1%
  MCH: 19.7 pg
  MCHC: 34.6%
  MCV: 57 fL
  Mono: 2.2%
  Neu: 19.3%
  PT: 11.5 s
  Plat: 140.8 x10_4/uL
  RBC: 696.8 x10_4/ul
  Ret: 3.8%
  WBC: 87.1 x10_2/uL
  KIDNEY_L: 1.1 g
  KIDNEY_R: 1.1 g
  KIDNEY_TOTAL: 2.2 g
  LIVER: 15.1 g
  A/G: 0.8
  ALP: 1317.4 IU/L
  ALT: 34.6 IU/L
  AST: 58.6 IU/L
  BUN: 15.8 mg/dL
  CRE: 0.2 mg/dL
  Ca: 10.9 mg/dL
  Cl: 106.6 meq/L
  DBIL: 0.012 mg/dL
  GLC: 187 mg/dL
  IP: 6.5 mg/dL
  K: 3.5 meq/L
  LDH: 49.6 IU/L
  Na: 144.4 meq/L
  PL: 156.6 mg/dL
  RALB: 2.8 g/dL
  TBIL: 0.046 mg/dL
  TC: 88.2 mg/dL
  TG: 88.8 mg/dL
  TP: 6.3 g/dL
  gamma-GTP: 1.4 IU/L
[8]
  TERMINAL_BW: 401.5 g
  APTT: 19.5 s
  Bas: 0.5%
  Eos: 0.6%
  Fbg: 303.6 mg/dL
  Hb: 14.9 g/dL
  Ht: 41.2%
  Lym: 75.9%
  MCH: 19.7 pg
  MCHC: 36%
  MCV: 54.7 fL
  Mono: 1.7%
  Neu: 20.7%
  PT: 12.1 s
  Plat: 114.8 x10_4/uL
  RBC: 753.2 x10_4/ul
  Ret: 2.2%
  WBC: 131.8 x10_2/uL
  KIDNEY_L: 1.4 g
  KIDNEY_R: 1.3 g
  KIDNEY_TOTAL: 2.7 g
  LIVER: 18.5 g
  A/G: 0.7
  ALP: 844.2 IU/L
  ALT: 32.8 IU/L
  AST: 52.6 IU/L
  BUN: 16.2 mg/dL
  CRE: 0.3 mg/dL
  Ca: 11 mg/dL
  Cl: 103.8 meq/L
  DBIL: 0.012 mg/dL
  GLC: 189.6 mg/dL
  IP: 6.1 mg/dL
  K: 3.5 meq/L
  LDH: 53.6 IU/L
  Na: 144.4 meq/L
  PL: 167.2 mg/dL
  RALB: 2.7 g/dL
  TBIL: 0.056 mg/dL
  TC: 91.4 mg/dL
  TG: 132 mg/dL
  TP: 6.5 g/dL
  gamma-GTP: 1.4 IU/L

Reference: ChEMBL document CHEMBL3885861, “Open TG-GATES”
